Source: patent US7250304B2, “Functional assay of high-density lipoprotein” (The Regents of the University of California, priority 2000, dated 2007)
Where two headings read alike, the source gives them in different places.

Assays:
HAEC monolayers = experiment: Monocyte adhesion assay; type: cell-based, human; conditions: LDL 1 mg/ml incubated with apo A-I 100 μg/ml 2 hrs, re-isolated
Experimental: In brief, HAEC monolayers, in 48-well tissue culture plates were incubated with the desired LDL or phospholipid for 4 hrs at 37° C. as described (Watson et al. (1995) J. Clin. Invest. 96: 2882-2891). After washing, a suspension of human peripheral blood monocytes was added and incubated for 10 min. The loosely adherent monocytes were then washed away, the monolayers were fixed and the number of adherent monocytes counted in 9 high power microscopic fields.
Freshly isolated LDL (250 μg) was incubated with pure 13(S)-HPODE (1.0 μg) in 10% LPDS in M 199 for 4 hrs at 37° C. with gentle mixing. LDL was re-isolated by centrifugation and was incubated with monolayers of human aortic endothelial cells. […] The endothelial monolayer was washed after each time point and a monocyte suspension was added, incubated, washed, and the number of adherent monocytes determined.
Freshly isolated LDL (250 μg) was incubated with 10 units of pure soybean lipoxygenase bound to sepharose beads for 4 hrs at 37° C. with gentle mixing. […] The endothelial monolayer was washed after each time point and monocyte adhesion determined.
Blood samples were collected from patients referred to the cardiac catheterization laboratory at The Center for Health Sciences at the University of California, Los Angeles. […] The HDL-Ox-PAPC mixture was then added to endothelial monolayers and monocyte binding was determined.

humans = experiment: Infusion of apo A-I into humans, LDL isolated and tested on human artery wall cocultures; type: in vivo
[1] = tested on: human artery wall cell cocultures; experiment: LDL oxidation by human artery wall cell cocultures (lipid hydroperoxides); type: cell-based
Experimental: (§1) The wells of the microtiter plates were treated with 0.1% gelatin at 37° C. overnight. HASMC were added at a confluent density of 1×10^5 cells/cm^2. Cells were cultured for 2 d at which time they had covered the entire surface of the well and had produced a substantial amount of extracellular matrix. HAEC were subsequently added at 2×10^5 cells/cm^2 and were allowed to grow forming a complete monolayer of confluent HAEC in 2 d. In all experiments, HAEC and autologous HASMC (from the same donor) were used at passage levels of four to six.
(§2) In general, the cocultures were treated with native LDL (250 μg/ml) in the absence or presence of HDL for 8 h. The supernatants were collected and used for determination of lipid hydroperoxide levels. The cocultures were subsequently washed and fresh culture medium 199 (M199) without any additions was added and incubated for an additional 8 hrs. This allowed the collection of monocyte chemotactic activity released by the cells as a result of stimulation by the oxidized LDL. At the end of incubation, the supernatants were collected from cocultures, diluted 40-fold, and assayed for monocyte chemotactic activity. Briefly, the supernatant was added to a standard Neuroprobe chamber (NeuroProbe, Cabin John, Md.), with monocytes added to the top. The chamber was incubated for 60 min at 37° C. After the incubation, the chamber was disassembled and the nonmigrated monocytes were wiped off. The membrane was then air dried and fixed with 1% glutaraldehyde and stained with 0.1% Crystal Violet dye. The number of migrated monocytes was determined microscopically and expressed as the mean±SD of 12 standardized high power fields counted in quadruple wells.
Statistical significance was determined by model 1 ANOVA. […] Significance is defined as p<0.05.
Human artery wall cocultures were preincubated with ETYA at a concentration of 10^−8 mol/L or with cinnamyl-3,4-dihydroxy-α-cyanocynamate (CDC, from Biomol) at a concentration of 10^−8 mol/L in M199 containing 10% LPDS for 30 min. The cocultures were then washed and LDL was added at 250 μg/ml and incubated for 8 hrs.

[2] = tested on: human artery wall cell cocultures; experiment: Monocyte chemotaxis assay on coculture conditioned medium; type: cell-based
Experimental: as §1
Monocytes were isolated using a modification of the Recalde method as previously described (Fogelman et al. (1988) J. Lipid Res. 29: 1243-1247) from the blood of normal volunteers after obtaining written consent under a protocol approved by the human research subject protection committee of the University of California, Los Angeles.
as §2

paraoxonase [3] = conditions: humans, six hours after the infusion vs two hours before
Experimental: After obtaining written informed consent and with IRB approval from St Bartholomew's and the Royal London School of Medicine and Dentistry, apo A-I/phosphotidylcholine discs were infused at a dose of 40 mg apo A-I /kg of body weight over four hours using the materials and protocol described by Nanjee et al (Nanjee et al. (1999) Arterioscler. Thromb. Vascul. Biol. 19: 979-989; Nanjee et al. (1996) Arteroscler. Thromb. Vascul. Biol. 16: 1203-1214) into six healthy male subjects. […] Plasma was prepared 2 hrs before and 6 hrs following the infusion, was cryopreserved as described (Havel et al. (1955) J. Clin. Invest. 43: 1345-1353) and LDL was isolated by FPLC in the authors' lab in Los Angeles before the experiments. LDL islated from plasma according to this protocol functions in a manner that is indistinguishable from freshly isolated LDL in vitro and in vivo (Rumsey et al. (1994) J. Lipid Res. 35: 1592-1598).
Paraoxonase (PON) activity was measured as previously described (Gan et al. (1991) Drug Metab. Dispos. 19: 100-106). Statistical significance was determined by model 1 ANOVA. […] Significance is defined as p<0.05.

[4] = tested on: fibroblasts over expressing 15-LO; experiment: Removal of 13(S)-HPODE by apo A-I from fibroblasts over expressing 15-LO; type: cell-based; conditions: apo A-I 100 μg/ml, 3 hrs
Experimental: Fibroblasts that were transfected with vector alone or cells that over expressed 15-LO were a generous gift of Drs. Joe Witztum and Peter Reaven. In the present experiments, the fibroblasts were incubated with or without 100 μg/ml apo A-I. Following 3 hrs of incubation at 37° C. with gentle mixing, the culture supernatants were removed, apo A-I was separated by FPLC and the level of hydroperoxides determined in lipid extracts of the culture supernatants and in lipid extracts of apo A-I.

C57BL/6 mice = experiment: Injection into mice, LDL isolated and tested on human artery wall cocultures
paraoxonase [5] = conditions: mice, six hours after injection

Substance: apo A-I: Human apo A-I from Sigma, major apolipoprotein of HDL; infused into humans as apo A-I/phosphatidylcholine discs
- monocyte adherence induced by LDL after A-I (HAEC monolayers): did not stimulate monocyte adherence
- resistance of human LDL to oxidation by artery wall cells after infusion (humans; apo A-I/phosphatidylcholine discs 40 mg apo A-I/kg over 4 hrs, six hours after vs two hours before, six out of six subjects): much more resistant to oxidation
- time after infusion at which LDL was rendered resistant to oxidation (humans; humans): ≤ 6 h
- oxidation by artery wall cells of mouse LDL after apo A-I treatment ([1]; LDL from C57BL/6 and C3H/HeJ mice on chow, incubated in vitro with human apo A-I 100 μg/ml): rendered resistant to oxidation
- protection of LDL against oxidation on co-incubation ([1]; apo A-I 50 μg/ml co-incubated with cocultures and LDL 250 μg/ml): did not protect the LDL against oxidation
- ability of pretreated artery wall cocultures to oxidize LDL ([1]; cocultures incubated 8 hrs with agent, agent removed before LDL 250 μg/ml): not able to oxidize the LDL
- oxidation by artery wall cells of LDL pre-incubated with the agent ([1]; human LDL incubated with agent, re-isolated, then cocultures 8 hrs): rendered the LDL resistant to oxidation
- LDL-induced monocyte chemotaxis in pretreated cocultures ([2]; cocultures incubated 8 hrs with agent, agent removed before LDL): monocyte chemotaxis was prevented
- LDL-induced monocyte chemotactic activity of LDL pre-incubated with the agent ([2]; human LDL incubated with agent, re-isolated, then cocultures): prevented LDL-induced monocyte chemotaxis
- PON activity in plasma and HDL, increase (paraoxonase [3]): approximately 20%
- 13-HPODE equivalents in lipid extracts of apo A-I, cells over expressing LO vs control cells [4]: 5.1 fold
- time after injection at which LDL was rendered resistant to oxidation (C57BL/6 mice): ≤ 3 h
- persistence of LDL resistance to oxidation (C57BL/6 mice; 100 μg injected): up to 24 hours
- PON activity in plasma and HDL, increase (paraoxonase [5]): approximately 20%
